The record followed here is patent US10780092B2, “Fused pyrazine derivatives useful as soluble guanylate cyclase stimulators” (Merck Sharp & Dohme Corp., priority 2016, dated 2020).

Assay [1] has as its target sGC α1/β1 heterodimer (Homo sapiens (Human), UniProt Q02108+Q02153). Kind of assay: Cell-based sGC functional assay (CASA assay), cGMP by HTRF. Conditions: CHO-K1/sGC cells; for Emax: CHO-K1, cGMP production as percentage of maximum of compound A (set to 100%), read-out: % Activation; for EC50: inflection point of cGMP production, 4P fit, read-out: IP. In a few lines:
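cGMP made in CHO-K1/sGC (human α1/β1) cells is read by HTRF after compound treatment for 1 hr at 37° C, following 30 min at 25° C with or without 1 μM DETA-NO; IBMX 0.5 mM present. Values are % of standard compound maximum; 4P fit.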
A general note: In TR-FRET formats the signal depends on donor and acceptor labels being close together.

Assay [2] deals with human recombinant sGC enzyme (Homo sapiens (Human), UniProt Q02108+Q02153). Kind of assay: SEC competition binding assay with [3H] Compound B radioligand. Conditions: displacement of 1.6 nM [3H] Compound B, 24 h at 37° C. In a few lines:
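Competition format: [3H] Compound B (1.6 nM) displaced from human recombinant sGC over 24 h at 37° C. in triethanolamine pH 7.4 buffer with MgCl2, BSA, DTT, 300 μM DETA/NO and 400 μM GTP (1% DMSO). Gel-filtration eluates counted by liquid scintillation; 1 μM Compound B defined non-specific binding; Ki by one-site fit.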

Assay [3] deals with hypoxia-induced pulmonary hypertension in rat. Put plainly: Acute efficacy in hypoxia-induced pulmonary hypertension in rat following intratracheal (IT) administration. Type of assay: in vivo. Conditions: decrease in SBP at dose giving decrease in PAP ≥15 mmHg. From the text:
Acute Efficacy in Hypoxia-Induced Pulmonary Hypertension in Rat Following Intratracheal (IT) Administration Charles River Sprague-Dawley (CD) male rats weighing approximately 350 g were implanted with HD-S21 dual pressure telemetry transmitters (Data Sciences International (DSI)) into the pulmonary artery and femoral artery. This transmitter enables simultaneous measurement of both pulmonary and systemic hemodynamic parameters in the same animal. After a 7-10 day post-operative recovery period, animals were subjected to a normobaric hypoxic (10% oxygen) environment using a Higher Peak Mountain Air Generator (MAG-10) connected to a modified rodent cage via a fitted inlet port. Oxygen (at 10%), temperature, humidity, and CO2 were controlled within normal range and animals were maintained on a 12 hour light-dark cycle with ad libitum access to food and water. After two weeks exposure to 10% O2 hypoxic environment, systolic pulmonary arterial pressure readings increased from ˜25 mmHg to greater than 50 mmHg. Using a 48 hour baseline average, animals with readings between 50-110 mmHg (standard deviation of less than 10 mmHg) and minimal changes in systolic systemic blood pressure were enrolled for study. Animals were utilized for up to 2 studies per week for 4 weeks with a minimum of 2 days washout between doses of test agent. Compound or vehicle was administered intra-tracheally under light isoflurane anesthesia (5% in oxygen; flow rate 2.0 L/min for 3 minutes). Once anesthetized, rats were placed on an angled intubation stand in supine position and the trachea visualized using a small laryngoscope. Animals then received either 0.5 mL/kg of vehicle or 0.5 mL/kg vehicle containing compound intra-tracheally delivered via microsprayer by use of a Penn-Century Microsprayer® needle 3″ (Model IA-1B-GP) attached to a 1 mL high pressure syringe (Penn Century-Model B—SYR-PL1000) (Penn-Century, Philadelphia, Pa.). The Microsprayer® tip was inserted into the trachea up to the point at which the bend in the needle is close to the tip of the snout, which positions the tip of the Microsprayer® in front of the carina (bifurcation of trachea at the bronchi). After dose delivery the animal is placed on its back in the home cage for recovery. Hemodynamic measurements were continuously recorded and readings consolidated to hourly moving averages. Each animal received a vehicle on Day 1 followed by vehicle or test agent on Day 2. Change from vehicle baseline was calculated by subtracting the hourly Day 1 vehicle response from the hourly Day 2 response and treatment group data was expressed as mean±SEM. Decreases of systolic blood pressure (SBP) and systolic pulmonary arterial pressure (PAP) were measured at a particular IT dose (mpk milligrams per kilogram) for the following Example compounds. Compounds in the Table 13 achieved a minimum decrease in PAP of ≥15 mmHg for the corresponding decrease in SBP listed.

The structures appear in SMILES notation.

As for `CC1(c2cccc(O)c2)C(=O)Nc2nc(-c3cn4ncnc4c(CCC(F)(F)C(F)(F)F)n3)nc(N)c21` (stereo not shown) [Example 78-B, 4-Amino-5-(3-hydroxyphenyl)-5-methyl-2-(8-(3,3,4,4,4-pentafluorobutyl)-[1,2,4]triazolo[1,5-a]pyrazin-6-yl)-5,7-dihydro-6H-pyrrolo[2,3-d]pyrimidin-6-one], in assay [1], the Emax was 93% and the EC50 was determined as 202 nM. For the same compound, in assay [2], the Ki amounted to 8.88 nM. For the same compound, in assay [3] (IT dose 0.3 mpk), the “Category (decrease in SBP)” value was “C (decrease in SBP >10 mmHg)”.
Turning to `CC1(c2cc(O)c(C#N)c(F)c2)C(=O)Nc2nc(-c3cn4ccnc4c(Cc4cc(F)cc(F)c4)n3)nc(N)c21` (stereo not shown) [Example 38-B, 4-(4-Amino-2-{8-[(3,5-difluorophenyl)methyl]imidazo[1,2-a]pyrazin-6-yl}-5-methyl-6-oxo-6,7-dihydro-5H-pyrrolo[2,3-d]pyrimidin-5-yl)-2-fluoro-6-hydroxybenzonitrile], in assay [1], the Emax came out at 92% and the EC50 came to 720 nM. In assay [2], the Ki amounted to 0.41 nM. Further, in assay [3] (IT dose 0.03 mpk), the “Category (decrease in SBP)” value was “A (decrease in SBP 0-5 mmHg)”.
Regarding `CC1(c2cc(O)c(Cl)c(F)c2)C(=O)Nc2nc(-c3cn4ccnc4c(Cc4ccccc4F)n3)nc(N)c21` (stereo not shown) [Example 2-B, 4-Amino-5-(4-chloro-3-fluoro-5-hydroxyphenyl)-2-{8-[(2-fluorophenyl)methyl]imidazo[1,2-a]pyrazin-6-yl}-5-methyl-5,7-dihydro-6H-pyrrolo[2,3-d]pyrimidin-6-one], in assay [1], the Emax was determined as 89% and the EC50 was found to be 1620 nM. Also, in assay [2], the Ki amounted to 0.095 nM. In assay [3] (IT dose 0.01 mpk), the “Category (decrease in SBP)” value is “A (decrease in SBP 0-5 mmHg)”.
With `CC1(c2cc(O)c(C#N)c(F)c2)C(=O)Nc2nc(-c3cn4ccnc4c(CC4CCCCC4)n3)nc(N)c21` (stereo not shown) [Example 18-B, 4-(4-Amino-2-(8-(cyclohexylmethyl)imidazo[1,2-a]pyrazin-6-yl)-5-methyl-6-oxo-6,7-dihydro-5H-pyrrolo[2,3-d]pyrimidin-5-yl)-2-fluoro-6-hydroxybenzonitrile], in assay [1], the Emax came to 88% and the EC50 was 950 nM. For the same compound, in assay [2], the Ki came to 0.168 nM. For the same compound, the “Category (decrease in SBP)” value in assay [3] (IT dose 0.03 mpk) is listed as “B (decrease in SBP 5-10 mmHg)”.
With `Cc1ccc(C2(C)C(=O)Nc3nc(-c4cn5ccnc5c(Cc5cccc(F)c5)n4)nc(N)c32)cc1O` (stereo not shown) [Example 107-B, 4-Amino-2-{8-[(3-fluorophenyl)methyl]imidazo[1,2-a]pyrazin-6-yl}-5-(3-hydroxy-4-methylphenyl)-5-methyl-5,7-dihydro-6H-pyrrolo[2,3-d]pyrimidin-6-one], in assay [1], the Emax amounted to 135% and the EC50 amounted to 198 nM. In assay [2], the Ki worked out at 0.221 nM. Also, the “Category (decrease in SBP)” value in assay [3] (IT dose 0.01 mpk) is “A (decrease in SBP 0-5 mmHg)”.
On to `CC1(c2cc(O)c(C(F)(F)F)c(F)c2)C(=O)Nc2nc(-c3cn4ccnc4c(CC4CCCCC4)n3)nc(N)c21` (stereo not shown) [Example 97-B, 4-Amino-2-(8-(cyclohexylmethyl)imidazo[1,2-a]pyrazin-6-yl)-5-(3-fluoro-5-hydroxy-4-(trifluoromethyl)phenyl)-5-methyl-5,7-dihydro-6H-pyrrolo[2,3-d]pyrimidin-6-one], for which, in assay [1], the Emax was found to be 138% and the EC50 is 1080 nM. The Ki in assay [2] came out at 0.587 nM. The “Category (decrease in SBP)” value in assay [3] (IT dose 0.03 mpk) is listed as “A (decrease in SBP 0-5 mmHg)”.
In the case of `CC1(c2cc(O)c(Cl)cn2)C(=O)Nc2nc(-c3cn4ccnc4c(CC4CCCCC4)n3)nc(N)c21` (stereo not shown) [Example 93-B, 4-Amino-5-(5-chloro-4-hydroxypyridin-2-yl)-2-(8-(cyclohexylmethyl)imidazo[1,2-a]pyrazin-6-yl)-5-methyl-5,7-dihydro-6H-pyrrolo[2,3-d]pyrimidin-6-one], in assay [1], the Emax was found to be 98% and the EC50 stood at 683 nM. The Ki in assay [2] stood at 0.374 nM. In addition, in assay [3] (IT dose 0.03 mpk), the “Category (decrease in SBP)” value is given as “A (decrease in SBP 0-5 mmHg)”.
For the compound `CC1(c2ccc(O)c(Cl)c2)C(=O)Nc2nc(-c3cn4ccnc4c(Cc4ccccc4F)n3)nc(N)c21` (stereo not shown) [Example 28-B, 4-Amino-5-(3-chloro-4-hydroxyphenyl)-2-{8-[(2-fluorophenyl)methyl]imidazo[1,2-a]pyrazin-6-yl}-5-methyl-5,7-dihydro-6H-pyrrolo[2,3-d]pyrimidin-6-one], in assay [1], the Emax amounted to 141% and the EC50 came out at 433 nM. Further, in assay [2], the Ki was determined as 0.283 nM. Moreover, in assay [3] (IT dose 0.01 mpk), the “Category (decrease in SBP)” value is on record as “B (decrease in SBP 5-10 mmHg)”.
`CC1(c2cc(O)c(Cl)cn2)C(=O)Nc2nc(-c3cn4ccnc4c(Cc4cc(F)ccc4F)n3)nc(N)c21` (stereo not shown) [Example 94-B, 4-Amino-5-(5-chloro-4-hydroxypyridin-2-yl)-2-{8-[(2,5-difluorophenyl)methyl]imidazo[1,2-a]pyrazin-6-yl}-5-methyl-5,7-dihydro-6H-pyrrolo[2,3-d]pyrimidin-6-one]: in assay [1], the Emax came to 125% and the EC50 came out at 1260 nM. In addition, in assay [2], the Ki was 0.149 nM. In addition, in assay [3] (IT dose 0.03 mpk), the “Category (decrease in SBP)” value is on record as “B (decrease in SBP 5-10 mmHg)”.
In the case of `CC1(c2ccc(Cl)c(O)c2)C(=O)Nc2nc(-c3cn4ncnc4c(CCC(F)(F)C(F)(F)F)n3)nc(N)c21` (stereo not shown) [Example 88-A, 4-Amino-5-(4-chloro-3-hydroxyphenyl)-5-methyl-2-(8-(3,3,4,4,4-pentafluorobutyl)-[1,2,4]triazolo[1,5-a]pyrazin-6-yl)-5,7-dihydro-6H-pyrrolo[2,3-d]pyrimidin-6-one], in assay [1], the Emax was found to be 95% and the EC50 stood at 279 nM. Further, in assay [2], the inhibition constant Ki was determined as 2.5 nM. For the same compound, in assay [3] (IT dose 0.03 mpk), the “Category (decrease in SBP)” value is “A (decrease in SBP 0-5 mmHg)”.
As for `CC1(c2cc(O)ccn2)C(=O)Nc2nc(-c3cn4ncnc4c(CC4CCCCC4)n3)nc(N)c21` (stereo not shown) [Example 109-A, 4-Amino-2-(8-(cyclo-hexylmethyl)-[1,2,4]-triazolo[1,5-a]pyrazin-6-yl)-5-(4-hydroxy-pyridin-2-yl)-5-methyl-5,7-dihydro-6H-pyrrolo-[2,3-d]pyrimidin-6-one], in assay [1], the Emax worked out at 97% and the EC50 is 221 nM. Moreover, the Ki in assay [2] is 0.634 nM. Moreover, the “Category (decrease in SBP)” value in assay [3] (IT dose 0.03 mpk) is recorded as “C (decrease in SBP >10 mmHg)”.
Consider `CC1(c2cc(O)c(Cl)cn2)C(=O)Nc2nc(-c3cn4ncnc4c(CC4CCCCC4)n3)nc(N)c21` (stereo not shown) [Example 105-B, 4-Amino-5-(5-chloro-4-hydroxypyridin-2-yl)-2-(8-(cyclohexylmethyl)-[1,2,4]triazolo[1,5-a]pyrazin-6-yl)-5-methyl-5,7-dihydro-6H-pyrrolo[2,3-d]pyrimidin-6-one], for which, in assay [1], the Emax was determined as 108% and the EC50 was found to be 138 nM. In addition, the Ki in assay [2] was 0.213 nM. The “Category (decrease in SBP)” value in assay [3] (IT dose 0.03 mpk) is “B (decrease in SBP 5-10 mmHg)”.
The corresponding values for `CC1(c2cc(O)c(C#N)c(F)c2)C(=O)Nc2nc(-c3cn4ccnc4c(Cc4ccccc4F)n3)nc(N)c21` (stereo not shown) [Example 23-B, 4-(4-Amino-2-{8-[(2-fluorophenyl)methyl]imidazo[1,2-a]pyrazin-6-yl}-5-methyl-6-oxo-6,7-dihydro-5H-pyrrolo[2,3-d]pyrimidin-5-yl)-2-fluoro-6-hydroxybenzonitrile] are 76%, 3110 nM, 0.216 nM and “A (decrease in SBP 0-5 mmHg)”.

The Ki is the dissociation constant of the complex between target and ligand, obtained from inhibition or displacement.
